Experimental data: PubChem BioAssay AID2305 (GlaxoSmithKline (GSK), 2010)

System: P. falciparum 3D7 growth, pLDH absorbance
Experiment: blood-stage malaria parasite growth potency – strain 3D7, dose response (AID 2305)

Row | SMILES | IC50
1 | Cc1cc(N2CCN(CC3CCN(C)CC3)CC2)nc(Nc2ccc(Br)cc2)n1 | 440 nM
2 | CC[C@H](C)CNC(=O)c1cncc(-c2cccc(CN3CCC(N4CCCC4)CC3)c2)c1 | 1170 nM
3 | O=c1cc(NCCCCNCc2cccc(C(F)(F)F)c2)[nH]c2ccccc12 | 790 nM
4 | NCCNc1ccnc2cc(Cl)ccc12 | 130 nM
5 | COc1ccc2ccccc2c1C=NNc1cc(C)nc2cc(C(F)(F)F)ccc12 | 1040 nM
6 | Cc1nc(NCc2ccccc2)cc(Nc2cc(NCc3ccccc3)nc(C)n2)n1 | 970 nM
7 | O=C(Nc1ccc(C(F)(F)F)cc1)NC1CCN(c2ccnc3ccccc23)CC1 | 180 nM
8 | CC(C)CN(Cc1c(O)ccc2[nH]c(-c3ccc(F)cc3F)nc12)CC(C)C | 800 nM
9 | Cc1cccc2[nH]c(-c3cccc(-c4ccc(NC(=O)CCc5cnc[nH]5)cc4)c3)nc12 | 300 nM
10 | CCOc1cc(C)c(C2CCN(CCCCNC(=O)c3ccc(NC(=O)c4ccc(Cl)cc4)cc3)CC2)cc1C | 740 nM
11 | Cc1cc(NN=Cc2ccccn2)c2cc(C(F)(F)F)ccc2n1 | 620 nM
12 | CC(=NN=C(N)N)c1ccc2ccc3ccccc3c2c1 | 890 nM
13 | Nc1ccc(-c2cnc3[nH]cc(-c4ccc(C(=O)O)cc4)c3c2)cn1 | 960 nM
14 | c1cc2c3c(cccc3c1)NC(CCCCCCCCC1=Nc3cccc4cccc(c34)N1)=N2 | 830 nM
15 | CCC(CC)(CCC#N)CN(C[C@@H](O)[C@H](Cc1ccccc1)NC(=O)OC(C)(C)C)S(=O)(=O)c1ccc(OC)cc1 | 1040 nM
16 | COc1ccc2nc(NC3=NC4(c5ccccc5)N=C(Nc5nc6ccc(OC)cc6[nH]5)NC4(c4ccccc4)N3)[nH]c2c1 (stereo not given) | 200 nM
17 | O=C(Nc1ccc(Cl)cc1)Nc1cccc(CCNCc2ccccc2)c1 | 730 nM
18 | CCNc1cc(C)nc(Nc2ccc(NS(=O)(=O)c3ccccc3)cc2)n1 | 790 nM
19 | CCCCCCOc1ccccc1C(=O)NCCOc1ccc(Cl)cc1 | 1210 nM
20 | COc1cccc(-c2cc(C(F)(F)F)n3ncc(C(=O)Nc4cc(Cl)ccc4O)c3n2)c1 | 200 nM
21 | C/C=C1\CN2CC[C@H]1C[C@H]2[C@H](O)c1ccnc2ccc(O)cc12 | 600 nM
22 | COc1ccc2nccc([C@@H](O)CN3CCC(NCc4ccc(OC)c(NC(C)=O)c4)CC3)c2c1 | 840 nM
23 | CCc1ccc(C(=O)Nc2cccc(CN3CCCN(Cc4ccc(O)cc4)CC3)c2)cc1 | 1030 nM
24 | COc1ccc(-c2cccc(CNC3CCN(C)CC3)c2)cc1S(=O)(=O)NCc1ccccc1 | 870 nM
25 | Cc1ccc(O)c(-c2cc(C(=O)Nc3ccc(S(=O)(=O)N4CCCCCC4)cc3)[nH]n2)c1 | 710 nM

Row | SMILES | IC50
26 | CCCCCOc1ccc(CC(C)NCC(O)c2cccc(Cl)c2)cc1 (stereo not given) | 650 nM
27 | CC(C)CNCc1ccc(-c2ccc(CN(C(=O)NCCc3ccccc3)C3CCN(Cc4ccccc4)CC3)cc2)cc1 | 700 nM
28 | CC(=O)N1N=C(c2ccc(F)cc2)Sc2c1nc(C1CCCCC1)n2C(C)=O | 890 nM
29 | O=C(Nc1ccc(C(F)(F)F)cc1)c1ccc(S(=O)(=O)NC2CCCN(CC3CCCCC3)C2)cc1 (stereo not given) | 720 nM
30 | OCCNc1nc(Nc2cccc(O)c2)nc2ccccc12 | 390 nM
31 | CS(=O)(=O)c1ccc(CNCc2ccc(-c3ccc(-c4nc5ccc(C(F)(F)F)cc5[nH]4)cc3)cc2)cc1 | 710 nM
32 | Cc1cc(NN=Cc2ccc(Cl)cc2)c2cc(F)ccc2n1 | 830 nM
33 | Oc1ccc(Cl)cc1Nc1nc(C(F)(F)F)nc2ccccc12 | 940 nM
34 | Nc1nc(N)c2c(ccc3nn(Cc4cccnc4)cc32)n1 | 360 nM
35 | Cc1cc2ncn(-c3nccc(NCc4cccnc4)n3)c2cc1C | 660 nM
36 | O=C(/C=C/c1ccc(Cl)c(Cl)c1)NCCCCCN1CCC(NC(=O)Nc2cccc(Cl)c2Cl)CC1 | 670 nM
37 | CC(C)CCNCc1c(O)ccc2ccccc12 | 1670 nM
38 | COc1ccccc1CNC(=O)CCn1c(=O)[nH]c2ccsc2c1=O | 1040 nM
39 | COc1ccc(-c2nc3ccc(C)nc3nc2-c2ccc(OC)cc2)cc1 | 1110 nM
40 | CCOc1cc(Cc2cnc(N)nc2N)cc(Br)c1OC | 1440 nM
41 | Cc1cccc2[nH]c(-c3ccc(-c4ccc(CNCCNC(=O)c5ccnn5C)cc4)s3)nc12 | 310 nM
42 | COc1ccc(NC(=O)[C@H](CC(C)C)Nc2cc(C)nc(NCCc3ccc(F)cc3)n2)cc1 | 920 nM
43 | COc1ccc(C(=O)[C@H]2C[C@@H]2CN(C)CC(O)c2cc(C)c(OC)cc2C)cc1 (stereo not given in full) | 970 nM
44 | COc1ccc(NC(=O)NCC2CCCN(CCCCCNC(=O)/C=C/c3ccc(Cl)c(Cl)c3)C2)c(OC)c1 (stereo not given) | 860 nM
45 | CCCCCCc1cc(O)c2c3c(c(=O)oc2c1)CCN(C)C3 | 670 nM
46 | CCN(CC)Cc1cc(Nc2c3ccc(Cl)cc3nc3cccc(OC)c23)ccc1O | 30 nM
47 | COc1ccc2nccc([C@@H](O)CN3CCC(NCCOc4cc(F)cc(F)c4)CC3)c2c1 | 160 nM
48 | NC(N)=NN=Cc1ccccc1OCc1ccccc1Cl | 720 nM
49 | CC(=O)N(Cc1ccc(CC(C)NCCc2cccc(Cl)c2)cc1)Cc1ccc(CC(C)NCCc2cccc(Cl)c2)cc1 (stereo not given) | 780 nM
50 | O=C(Nc1ccc2c(c1)CCC2)c1ccc(N2CCN(c3ccncc3)CC2)cn1 | 860 nM
